In article PMC6278366, “Synthesis and Evaluation of Anticancer Activities of Novel C-28 Guanidine-Functionalized Triterpene Acid Derivatives” (Molecules, 2018):
Counter-ions that a name gives are not always drawn. Like-named read-outs stand apart in the source and are kept apart here. Blank lines part the entries; values can stand above or below the molecule they belong to.

What was measured:
[1] = test system: Jurkat (T-lymphoblastic leukemia) cells; assay: cells; assay type: cell-based; details: for IC50: viable cells; for SI (selectivity towards Jurkat cells): SI = IC50 fibroblasts/IC50 Jurkat cells
Protocol: (§1) Cells (Jurkat, K562, U937, HeLa, HEK293 and normal Fibroblasts) were purchased from Russian Cell Culture Collection (Institute of Cytology of the Russian Academy of Sciences, Saint Petersburg, Russia) and cultured according to standard mammalian tissue culture protocols and sterile technique. Human cell lines HEK293 and HeLa were obtained from the HPA Culture Collections (Salisbury, UK). All cell lines used in the study were tested and shown to be free of mycoplasma and viral contamination.
(§2) Cells were maintained in RPMI 1640 (Jurkat, K562, U937) (Gibco, Thermo Fisher Scientific, Waltham, MA, USA) supplemented with 4 mM glutamine, 10% FBS (Sigma, Burlington, MA, USA) and 100 units/mL penicillin-streptomycin (Sigma). All types of cells were grown in an atmosphere of 5% CO2 at 37 °C. The cells were subcultures at 2–3 days intervals. Adherent cells (HEK293, HeLa, fibroblasts) were suspended using trypsin/EDTA and counted after they have reached 80% confluency. Cells were then seeded in 24 well plates at 5 × 10^4 cells per well and incubated overnight. Jurkat, K562, U937 cells were subcultured at 2 day intervals with a seeding density of 1 × 10^5 cells per 24 well plates in RPMI with 10% FBS.
(§3) Viability (Live/dead) assessment was performed by staining cells with 7-AAD (7-Aminoactinomycin D) (Biolegend, San Diego, CA, USA). Cells were treated of test compounds with six different concentrations (1, 5, 10, 15, 30 and 60 μM). After treatment, cells were harvested, washed 1–2 times with phosphate-buffered saline (PBS) and centrifuged at 400× g for 5 min. Cell pellets were resuspended in 200 μL of flow cytometry staining buffer (PBS without Ca^2+ and Mg^2+, 2.5% FBS) and stained with 5 μL of 7-AAD staining solutionfor 15 min at room temperature in the dark. Samples were acquired on NovoCyteTM 2000 FlowCytometry System (ACEA, San Diego, CA, USA) equipped with 488 nm argon laser. Detection of 7-AAD emission was collected through a 675/30 nm filter in FL4 channel.

[2] = test system: K562 (chronic myeloid leukemia) cells; assay: Cytotoxicity assay (7-AAD viability, flow cytometry), K562; assay type: cell-based, human; details: viable cells
Protocol: as §1, §2, §3

[3] = test system: U937 (histiocytic lymphoma) cells; assay: Cytotoxicity assay (7-AAD viability, flow cytometry), U937; assay type: cell-based, human
Protocol: as §1, §2, §3

[4] = test system: HEK293 (embryonic kidney) cells; assay: Cytotoxicity assay (7-AAD viability, flow cytometry), HEK293; assay type: cell-based, human; details: at least three experiments in duplicate, viable cells
Protocol: as §1
(§4) HEK293, HeLa cell lines and fibroblasts were cultured as monolayers and maintained in Dulbecco’s modified Eagle’s medium (DMEM, Gibco BRL, Waltham, MA, USA) supplemented with 10% foetal bovine serum and 1% penicillin-streptomycin solution at 37 °C in a humidified incubator under a 5% CO2 atmosphere.
as §2, §3

[5] = test system: HeLa (cervical cancer) cells; assay: Cytotoxicity assay (7-AAD viability, flow cytometry), HeLa; assay type: cell-based, human; details: mean ± SE, at least three experiments in duplicate, viable cells
Protocol: as §1, §4, §2, §3

normal human fibroblasts = assay: Cytotoxicity assay (7-AAD viability, flow cytometry), normal fibroblasts; assay type: cell-based; details: mean ± SE, at least three experiments in duplicate
Protocol: as §1, §4, §2
as §3, with “Cells were treated of test compounds with six different concentrations (1, 5, 10, 15, 30 and 60 μM).” left out

[6] = read-out: IC50 U937; mean ± SE, at least three experiments in duplicate; viable cells
[7] = Homo sapiens, Jurkat, mean ± SE, at least three experiments in duplicate, read-out: IC50 Jurkat
[8] = Homo sapiens, K562, mean ± SE, at least three experiments in duplicate, read-out: IC50 K562
[9] = Homo sapiens, U-937, mean ± SE, at least three experiments in duplicate; viable cells; read-out: IC50 U937
[10] = Homo sapiens, HEK293, mean ± SE

SMILES: CC(=O)O[C@H]1CC[C@@]2(C)C(CC[C@]3(C)C2CCC2C4C(C(C)C)CC[C@]4(C(=O)NCCN(CCNC(=N)N)CCNC(=N)N)CC[C@]23C)C1(C)C (single isomer, unassigned) [Compound 12b, 3β-N-[2-(N,N′-bis-Ethylgyanidine)-aminoethyl]-3-O-acetyl-lupane-28-amide dihydrochloride]
IC50 ([1]; read-out: IC50 Jurkat, mean ± SE, at least three experiments in duplicate): 14 ± 0.37 µM
IC50 ([2]; read-out: IC50 K562, mean ± SE, at least three experiments in duplicate): 52 ± 0.26 µM
IC50 [3, 6]: 13 ± 0.06 µM
IC50 ([4]; mean ± SE): 68 ± 0.29 µM
IC50 [5]: 72 ± 0.34 µM
IC50 (normal human fibroblasts): 106 ± 0.23 µM

SMILES: CC(C)C1CC[C@]2(C(=O)NCCCCNC(=N)N)CC[C@]3(C)C(CCC4[C@@]5(C)CC[C@H](O)C(C)(C)C5CC[C@]43C)C12 (stereo partly drawn) [Compound 14, 3β-N-(4-Butylgyanidine)-3-hydroxy-lupane-28-amide]
increase in cytotoxic activity against Jurkat cells in comparison with dihydrobetulinic acid 2 [1]: approximately 3 fold
IC50 [1, 7]: 17 ± 0.34 µM
SI (selectivity towards Jurkat cells) [1]: 5.6
IC50 [2, 8]: 36 ± 0.42 µM
IC50 [3, 9]: 20 ± 0.12 µM
IC50 [4, 10]: 59 ± 0.21 µM
IC50 ([5]; Homo sapiens, HeLa): 62 ± 0.24 µM
IC50 (normal human fibroblasts; Homo sapiens, Fibroblast): 96 ± 0.17 µM

SMILES: CC(C)C1CC[C@]2(C(=O)NCCCCNC(=N)N)CC[C@]3(C)C(CCC4[C@@]5(C)CCC(=O)C(C)(C)C5CC[C@]43C)C12 (stereo partly drawn) [Compound 9b, N-(4-Butylgyanidine)-3-oxolupane-28-amide dihydrochloride]
increase in cytotoxic activity against Jurkat cells in comparison with dihydrobetulinic acid 2 [1]: approximately 3 fold
IC50 [1, 7]: 21 ± 0.24 µM
SI (selectivity towards Jurkat cells) [1]: 8.5
IC50 [2, 8]: 57 ± 0.36 µM
IC50 [3, 9]: 14 ± 0.16 µM
IC50 [4, 10]: 92 ± 0.34 µM
IC50 ([5]; Homo sapiens, HeLa): 81 ± 0.19 µM
IC50 (normal human fibroblasts; Homo sapiens, Fibroblast): 179 ± 0.43 µM

SMILES: CC(=O)O[C@H]1CC[C@@]2(C)C(CC[C@]3(C)C2CC=C2C4[C@@H](C)[C@H](C)CC[C@]4(C(=O)OCC(CO)(CO)NC(=N)N)CC[C@]23C)C1(C)C (single isomer, unassigned) [Compound 18b, 3β-[2-Guanidine-3-hydroxy-2-(hydroxymethyl)propyl]-3-O-acetyl-urs-12-en-28-oate trifluoroacetate]
IC50 [1, 7]: 6.8 ± 0.32 µM
IC50 ([2]; mean ± SE, at least three experiments in duplicate, read-out: IC50 K562): 40 ± 0.29 µM
IC50 ([3]; mean ± SE, at least three experiments in duplicate; viable cells; read-out: IC50 U937): 2.1 ± 0.41 µM
IC50 [4, 10]: 13 ± 0.19 µM
IC50 ([5]; Homo sapiens, HeLa): 11 ± 0.27 µM
IC50 (normal human fibroblasts; Homo sapiens, Fibroblast): 47 ± 0.15 µM

SMILES: CC(=O)O[C@H]1CC[C@@]2(C)C(CC[C@]3(C)C2CCC2C4C(C(C)C)CC[C@]4(C(=O)NCCN(CCNC(=N)N)CCNC(=N)N)CC[C@]23C)C1(C)C (single isomer, unassigned) [Compound 12a, 3β-N-[2-(N,N′-bis-Ethylgyanidine)-aminoethyl]-3-O-acetyl-lupane-28-amide trifluoroacetate]
IC50 ([1]; Homo sapiens, Jurkat, read-out: IC50 Jurkat, mean ± SE, at least three experiments in duplicate): 22 ± 0.21 µM
IC50 ([2]; Homo sapiens, K562, read-out: IC50 K562, mean ± SE, at least three experiments in duplicate): 89 ± 0.18 µM
IC50 [3, 6]: 28 ± 0.25 µM
IC50 [4, 10]: 112 ± 0.19 µM
IC50 ([5]; Homo sapiens, HeLa): 101 ± 0.22 µM
IC50 (normal human fibroblasts; Homo sapiens, Fibroblast): 149 ± 0.43 µM

IC50 [1, 7]: 271 ± 0.19 µM
SMILES: CC1(C)CC[C@]2(C(=O)O)CC[C@]3(C)C(=CC[C@@H]4[C@@]5(C)CC[C@H](O)C(C)(C)[C@@H]5CC[C@]43C)[C@@H]2C1 [OA, oleanolic acid, reference compound]
IC50 [2, 8]: 235 ± 0.24 µM
IC50 [3, 9]: 186 ± 0.18 µM
IC50 [4, 10]: 247 ± 0.27 µM
IC50 ([5]; Homo sapiens, HeLa): 258 ± 0.31 µM
IC50 (normal human fibroblasts; Homo sapiens, Fibroblast): 694 ± 0.17 µM

SMILES: CC(=O)O[C@H]1CC[C@@]2(C)C(CC[C@]3(C)C2CCC2C4C(C(C)C)CC[C@]4(C(=O)NCCCCNC(=N)N)CC[C@]23C)C1(C)C (stereo partly drawn) [Compound 11b, 3β-N-(4-Butylgyanidine)-3-O-acetyl-lupane-28-amide hydrochloride]
increase in cytotoxic activity against Jurkat cells in comparison with dihydrobetulinic acid 2 [1]: approximately 3 fold
IC50 [1, 7]: 16 ± 0.18 µM
SI (selectivity towards Jurkat cells) [1]: 7.3
IC50 [2, 8]: 55 ± 0.38 µM
IC50 [3, 9]: 63 ± 0.29 µM
IC50 [4, 10]: 98 ± 0.27 µM
IC50 ([5]; Homo sapiens, HeLa): 106 ± 0.51 µM
IC50 (normal human fibroblasts; Homo sapiens, Fibroblast): 117 ± 0.38 µM

SMILES: CC(=O)O[C@H]1CC[C@@]2(C)C(CC[C@]3(C)C2CCC2C4C(C(C)C)CC[C@]4(C(=O)NCCNC(=N)N)CC[C@]23C)C1(C)C (stereo partly drawn) [Compound 10b, 3β-N-(2-Ethylgyanidine)-3-O-acetyl-lupane-28-amide hydrochloride]
IC50 [1, 7]: 67 ± 0.21 µM
IC50 [2, 8]: 98 ± 0.35 µM
IC50 [3, 9]: 82 ± 0.14 µM
IC50 [4, 10]: 128 ± 0.35 µM
IC50 ([5]; Homo sapiens, HeLa): 152 ± 0.49 µM
IC50 (normal human fibroblasts; Homo sapiens, Fibroblast): 354 ± 0.46 µM

SMILES: C[C@H]1[C@H](C)CC[C@]2(C(=O)O)CC[C@]3(C)C(=CC[C@@H]4[C@@]5(C)CC[C@H](O)C(C)(C)[C@@H]5CC[C@]43C)[C@H]12 [UA, ursolic acid, reference compound]
IC50 [1, 7]: 23 ± 0.34 µM
IC50 [2, 8]: 68 ± 0.11 µM
IC50 [3, 9]: 17 ± 0.12 µM
IC50 [4, 10]: 96 ± 0.22 µM
IC50 ([5]; Homo sapiens, HeLa): 88 ± 0.35 µM
IC50 (normal human fibroblasts; Homo sapiens, Fibroblast): 324 ± 0.16 µM

SMILES: CC(=O)O[C@H]1CC[C@@]2(C)C(CC[C@]3(C)C2CCC2C4C(C(C)C)CC[C@]4(C(=O)NCCCN4CCN(CCCNC(=N)N)CC4)CC[C@]23C)C1(C)C (stereo partly drawn) [Compound 13a, 3β-N-{[3-(3-Propylguanidine)piperazinyl]propyl}-3-O-acetyl-lupane-28-amide trifluoroacetate]
IC50 [1, 7]: 24 ± 0.27 µM
IC50 [2, 8]: 11 ± 0.33 µM
IC50 [3, 9]: 18 ± 0.21 µM
IC50 [4, 10]: 74 ± 0.15 µM
IC50 ([5]; Homo sapiens, HeLa): 79 ± 0.29 µM
IC50 (normal human fibroblasts; Homo sapiens, Fibroblast): 104 ± 0.26 µM

SMILES: CC(=O)O[C@H]1CC[C@@]2(C)C(CC[C@]3(C)C2CC=C2C4CC(C)(C)CC[C@]4(C(=O)OCC(CO)(CO)NC(=N)N)CC[C@]23C)C1(C)C (stereo partly drawn) [Compound 20b, 3β-[2-Guanidine-3-hydroxy-2-(hydroxymethyl)propyl]-3-O-acetyl-olean-12-en-28-oate trifluoroacetate]
IC50 [1, 7]: 6.7 ± 0.15 µM
IC50 [2, 8]: 20 ± 0.14 µM
IC50 [3, 9]: 6.1 ± 0.43 µM
IC50 [4, 10]: 12 ± 0.23 µM
IC50 ([5]; Homo sapiens, HeLa): 13 ± 0.41 µM
IC50 (normal human fibroblasts; Homo sapiens, Fibroblast): 49 ± 0.25 µM
